The values that follow come from ChEMBL document CHEMBL1131481, “Novel 3-aralkyl-7-(amino-substituted)-1,2,3-triazolo[4,5-d]pyrimidines with high affinity toward A1 adenosine receptors” (J Med Chem, 1998).

In this assay the target is T1, Adenosine receptor A1 (Bos taurus, UniProt P28190).
T1 sequence (P28190 whole entry): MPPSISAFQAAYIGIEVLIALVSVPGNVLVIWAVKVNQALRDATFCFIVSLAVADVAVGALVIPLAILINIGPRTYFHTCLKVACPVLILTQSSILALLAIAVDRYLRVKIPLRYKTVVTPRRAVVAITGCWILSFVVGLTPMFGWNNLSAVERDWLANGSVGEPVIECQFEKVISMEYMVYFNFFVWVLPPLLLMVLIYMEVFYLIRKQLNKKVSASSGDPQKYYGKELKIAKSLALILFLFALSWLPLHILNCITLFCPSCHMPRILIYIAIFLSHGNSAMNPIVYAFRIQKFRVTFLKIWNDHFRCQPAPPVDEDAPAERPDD
Briefly: Compound was tested for binding affinity at Adenosine A1 receptor in bovine brain cortical membranes using [3H](R)-(-)-N6-(2-phenylisopropyl)adenosine (R-PIA) as radioligand. In kind it is cell membranes.

Take `Cc1ccc(Nc2ncnc3c2nnn3CCc2ccccc2)cc1`: the Ki turned out to be 1670 nM. This counts as single-digit micromolar.
For `Cc1cccc(Nc2ncnc3c2nnn3Cc2ccccc2Cl)c1` the value was 5880 nM; for `Nc1ccc(CCNc2ncnc3c2nnn3Cc2ccccc2)cc1`, 1540 nM; for `c1ccc(Cn2nnc3c(NC4CCCCC4)ncnc32)cc1`, 121 nM.
For `Cc1ccc(Nc2ncnc3c2nnn3Cc2ccccc2Cl)cc1`, the Ki worked out at 119 nM.
To `Clc1cccc(Nc2ncnc3c2nnn3CCc2ccccc2)c1` belongs 3320 nM; to `Clc1ccccc1Cn1nnc2c(NC3CCCC3)ncnc21`, 21 nM; to `CC(Cc1ccccc1)Nc1ncnc2c1nnn2Cc1ccccc1` (centres undefined), 575 nM.
For `CC(Cc1ccccc1)Nc1ncnc2c1nnn2Cc1ccccc1Cl` (centres undefined) the value was 73 nM; for `Cc1cccc(Nc2ncnc3c2nnn3CCc2ccccc2)c1`, 4380 nM; for `CC1CCCC(Nc2ncnc3c2nnn3Cc2ccccc2Cl)C1` (centres undefined), 102 nM.
For `Cc1cccc(Nc2ncnc3c2nnn3Cc2ccccc2)c1` the value was 1100 nM; for `c1ccc(Cn2nnc3c(NCC4CCCCC4)ncnc32)cc1`, 2790 nM.
Take `O=[N+]([O-])c1ccc(CNc2ncnc3c2nnn3CCc2ccccc2)cc1`: the Ki amounted to 245 nM.
For `CC(Nc1ncnc2c1nnn2CCc1ccccc1)c1ccccc1` (centres undefined) the value was 2200 nM.
Take `c1ccc(CCn2nnc3c(NC4CCCCC4)ncnc32)cc1`: affinity was put at a Ki of 216 nM.
In turn, `Nc1ccc(CNc2ncnc3c2nnn3Cc2ccccc2)cc1` displayed a Ki of 9500 nM.
On to `CC(Nc1ncnc2c1nnn2Cc1ccccc1Cl)c1ccccc1` (centres undefined), for which the Ki was 468 nM.
To `CC(Nc1ncnc2c1nnn2Cc1ccccc1)c1ccccc1` (centres undefined) belongs 438 nM; to `c1ccc(Cn2nnc3c(NC4CCCC4)ncnc32)cc1`, 127 nM.
To `O=[N+]([O-])c1cccc(Nc2ncnc3c2nnn3Cc2ccccc2)c1` belongs 443 nM; to `Clc1ccccc1Cn1nnc2c(NC3CCCCC3)ncnc21`, 43 nM; to `O=[N+]([O-])c1ccc(CNc2ncnc3c2nnn3Cc2ccccc2Cl)cc1`, greater than 10000 nM.
As for `O=[N+]([O-])c1cccc(Nc2ncnc3c2nnn3CCc2ccccc2)c1`, the Ki was 2250 nM.
To `Clc1cccc(Nc2ncnc3c2nnn3Cc2ccccc2)c1` belongs 463 nM.
`Nc1ccc(CNc2ncnc3c2nnn3Cc2ccccc2Cl)cc1` had a Ki greater than 10000 nM.
For `Clc1ccccc1Cn1nnc2c(NCC3CCCCC3)ncnc21` the value was 4260 nM.
`CC1CCCC(Nc2ncnc3c2nnn3Cc2ccccc2)C1` (centres undefined): the Ki worked out at 770 nM.
For `Clc1cccc(Nc2ncnc3c2nnn3Cc2ccccc2Cl)c1` the value was 1830 nM.
The molecule `C[C@H](Cc1ccccc1)Nc1ncnc2c1nnn2Cc1ccccc1` came in with a Ki of 274 nM.
The molecule `C[C@H](Cc1ccccc1)Nc1ncnc2c1nnn2Cc1ccccc1Cl` showed a Ki of 39 nM.
For `Cc1ccc(Nc2ncnc3c2nnn3Cc2ccccc2)cc1` the value was 502 nM; for `O=[N+]([O-])c1ccc(CCNc2ncnc3c2nnn3Cc2ccccc2)cc1`, greater than 10000 nM.
To `c1ccc(CCn2nnc3c(NC4CCCC4)ncnc32)cc1` belongs 176 nM; to `CC(Cc1ccccc1)Nc1ncnc2c1nnn2CCc1ccccc1` (centres undefined), 2490 nM.
In turn, `Clc1ccccc1Cn1nnc2c(NNc3ccccc3)ncnc21` returned a Ki greater than 10000 nM.
To `O=[N+]([O-])c1ccc(CCNc2ncnc3c2nnn3Cc2ccccc2Cl)cc1` belongs greater than 10000 nM; to `O=[N+]([O-])c1cccc(Nc2ncnc3c2nnn3Cc2ccccc2Cl)c1`, 3300 nM.
To `O=[N+]([O-])c1ccc(CNc2ncnc3c2nnn3Cc2ccccc2)cc1` belongs greater than 10000 nM.

In general, Ki refers to the equilibrium dissociation constant of an inhibitor or competing ligand from its target. Higher therefore signals weaker binding.
